Biological target: T1, CCR2 (Homo sapiens, UniProt P41597)
T1 construct: host or cells: THP-1 (human monocytic cell line)
Test: MCP-1 Receptor Binding Assay in THP-1 Cells
Details: read-out: MCP1B_v3 IC50
Outline: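 Human monocytic THP-1 cells incubated 2 h at 30 °C with 0.5 nM 125I-MCP-1 and varying concentrations of test compound or unlabelled MCP-1. Cells filter-harvested and counted by scintillation; blank subtracted, compared with vehicle; nonspecific binding with 1 μM cold MCP-1.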

T1 sequence (P41597 whole entry): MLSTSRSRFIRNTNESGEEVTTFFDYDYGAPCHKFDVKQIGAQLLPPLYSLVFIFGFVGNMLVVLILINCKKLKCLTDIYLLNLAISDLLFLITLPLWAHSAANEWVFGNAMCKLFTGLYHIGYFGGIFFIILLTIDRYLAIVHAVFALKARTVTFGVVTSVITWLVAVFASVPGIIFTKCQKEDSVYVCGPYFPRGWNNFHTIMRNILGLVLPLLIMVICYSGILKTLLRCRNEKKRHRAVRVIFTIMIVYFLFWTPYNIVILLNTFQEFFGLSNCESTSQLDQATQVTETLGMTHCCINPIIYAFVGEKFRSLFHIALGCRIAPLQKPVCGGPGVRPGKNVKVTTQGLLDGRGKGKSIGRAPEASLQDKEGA

| IC50 [nM] | Structure (SMILES) |
| --- | --- |
| 630 | CCN1C[C@@H]2C[C@@H](NC3CCOCC3OC)C[C@]2(C(=O)N2CCc3ncc(C(F)(F)F)cc3C2)C1 (relative stereo) [Example 98, ((3aR,5R,6aR)-2-Ethyl-5-(((3S*,4S*)-3-methoxytetrahydro-2H-pyran-4-yl)amino)octahydrocyclopenta[c]pyrrol-3a-yl)(3-(trifluoromethyl)-7,8-dihydro-1,6-naphthyridin-6(5H)-yl)methanone] |
| 130 | COC1COCCC1N[C@@H]1C[C@H]2CN(C3COC3)C[C@@]2(C(=O)N2CCc3ncc(C(F)(F)F)cc3C2)C1 (relative stereo) [Example 99, ((3aR,5R,6aR)-5-(((3S*,4S*)-3-methoxytetrahydro-2H-pyran-4-yl)amino)-2-(oxetan-3-yl)octahydrocyclopenta[c]pyrrol-3a-yl)(3-(trifluoromethyl)-7,8-dihydro-1,6-naphthyridin-6(5H)-yl)methanone] |
| 30 | COC1COCCC1N[C@@H]1C[C@H]2CN(C3COC3)C[C@@]2(C(=O)N2CCc3ccc(C(F)(F)F)cc3C2)C1 (relative stereo) [Example 100, ((3aR,5R,6aR)-5-(((3S*,4S*)-3-Methoxytetrahydro-2H-pyran-4-yl)amino)-2-(oxetan-3-yl)octahydrocyclopenta[c]pyrrol-3a-yl)(7-(trifluoromethyl)-3,4-dihydroisoquinolin-2(1H)-yl)methanone] |
| 370 | COC1COCCC1N[C@@H]1C[C@H]2CN(Cc3ccccc3)C[C@@]2(C(=O)N2CCc3ncc(C(F)(F)F)cc3C2)C1 (relative stereo) [Example 101, ((3aR,5R,6aR)-2-Benzyl-5-(((3S*,4S*)-3-methoxytetrahydro-2H-pyran-4-yl)amino)octahydrocyclopenta[c]pyrrol-3a-yl)(3-(trifluoromethyl)-7,8-dihydro-1,6-naphthyridin-6(5H)-yl)methanone] |
| 1000 | COC1COCCC1N[C@@H]1C[C@H]2CN(CCc3ccccc3)C[C@@]2(C(=O)N2CCc3ncc(C(F)(F)F)cc3C2)C1 (relative stereo) [Example 102, ((3aR,5R,6aR)-5-(((3S*,4S*)-3-Methoxytetrahydro-2H-pyran-4-yl)amino)-2-phenethyloctahydrocyclopenta[c]pyrrol-3a-yl)(3-(trifluoromethyl)-7,8-dihydro-1,6-naphthyridin-6(5H)-yl)methanone] |
| 1000 | COC1COCCC1N[C@@H]1C[C@H]2CN(CCCc3ccccc3)C[C@@]2(C(=O)N2CCc3ncc(C(F)(F)F)cc3C2)C1 (relative stereo) [Example 103, ((3aR,5R,6aR)-5-(((3S*,4S*)-3-Methoxytetrahydro-2H-pyran-4-yl)amino)-2-(3-phenylpropyl)octahydrocyclopenta[c]pyrrol-3a-yl)(3-(trifluoromethyl)-7,8-dihydro-1,6-naphthyridin-6(5H)-yl)methanone] |
| 1980 | COC1COCCC1N[C@@H]1C[C@H]2CN(C3CCOCC3OC)C[C@@]2(C(=O)N2CCc3ncc(C(F)(F)F)cc3C2)C1 (relative stereo) [Example 104, ((3aR,5R,6aR)-2-((3S*,4S*)-3-Methoxytetrahydro-2H-pyran-4-yl)-5-(((3S*,4S*)-3-methoxytetrahydro-2H-pyran-4-yl)amino)octahydrocyclopenta[c]pyrrol-3a-yl)(3-(trifluoromethyl)-7,8-dihydro-1,6-naphthyridin-6(5H)-yl)methanone] |
| 120 | COC1COCCC1N[C@@H]1C[C@H]2CN(C3CCOCC3OC)C[C@@]2(C(=O)N2CCc3ccc(C(F)(F)F)cc3C2)C1 (relative stereo) [Example 105, ((3aR,5R,6aR)-2-((3S*,4S*)-3-Methoxytetrahydro-2H-pyran-4-yl)-5-(((3S*,4S*)-3-methoxytetrahydro-2H-pyran-4-yl)amino)octahydrocyclopenta[c]pyrrol-3a-yl)(7-(trifluoromethyl)-3,4-dihydroisoquinolin-2(1H)-yl)methanone] |
| 2800 | COC1COCCC1N[C@@H]1C[C@H]2CN(CC(=O)N(C)C)C[C@@]2(C(=O)N2CCc3ncc(C(F)(F)F)cc3C2)C1 (relative stereo) [Example 106, 2-((3aR,5R,6aR)-5-(((3S*,4S*)-3-Methoxytetrahydro-2H-pyran-4-yl)amino)-3a-(3-(trifluoromethyl)-5,6,7,8-tetrahydro-1,6-naphthyridine-6-carbonyl)hexahydrocyclopenta[c]pyrrol-2(1H)-yl)-N,N-dimethylacetamide] |
| 1100 | COC(=O)CN1C[C@@H]2C[C@@H](NC3CCOCC3OC)C[C@]2(C(=O)N2CCc3ncc(C(F)(F)F)cc3C2)C1 (relative stereo) [Example 107, Methyl 2-((3aR,5R,6aR)-5-(((3S*,4S*)-3-methoxytetrahydro-2H-pyran-4-yl)amino)-3a-(3-(trifluoromethyl)-5,6,7,8-tetrahydro-1,6-naphthyridine-6-carbonyl)hexahydrocyclopenta[c]pyrrol-2(1H)-yl)acetate] |
| 120 | COC1COCCC1N[C@@H]1C[C@H]2CN(c3ccccc3)C[C@@]2(C(=O)N2CCc3ncc(C(F)(F)F)cc3C2)C1 (relative stereo) [Example 108, ((3aR,5R,6aR)-5-(((3S*,4S*)-3-Methoxytetrahydro-2H-pyran-4-yl)amino)-2-phenyloctahydrocyclopenta[c]pyrrol-3a-yl)(3-(trifluoromethyl)-7,8-dihydro-1,6-naphthyridin-6(5H)-yl)methanone] |
| 150 | COC1COCCC1N[C@@H]1C[C@H]2CN(c3nccs3)C[C@@]2(C(=O)N2CCc3ncc(C(F)(F)F)cc3C2)C1 (relative stereo) [Example 110, ((3aR,5R,6aR)-5-(((3S*,4S*)-3-Methoxytetrahydro-2H-pyran-4-yl)amino)-2-(thiazol-2-yl)octahydrocyclopenta[c]pyrrol-3a-yl)(3-(trifluoromethyl)-7,8-dihydro-1,6-naphthyridin-6(5H)-yl)methanone] |
| 270 | COC1COCCC1N[C@@H]1C[C@H]2CN(c3nc(C)no3)C[C@@]2(C(=O)N2CCc3ncc(C(F)(F)F)cc3C2)C1 (relative stereo) [Example 111, ((3aR,5R,6aR)-5-(((3S*,4S*)-3-Methoxytetrahydro-2H-pyran-4-yl)amino)-2-(3-methyl-1,2,4-oxadiazol-5-yl)octahydrocyclopenta[c]pyrrol-3a-yl)(3-(trifluoromethyl)-7,8-dihydro-1,6-naphthyridin-6(5H)-yl)methanone] |
| 3660 | COC1COCCC1N[C@@H]1C[C@H]2CN(C3=NCCS3)C[C@@]2(C(=O)N2CCc3ncc(C(F)(F)F)cc3C2)C1 (relative stereo) [Example 112, ((3aR,5R,6aR)-2-(4,5-Dihydrothiazol-2-yl)-5-(((3S*,4S*)-3-methoxytetrahydro-2H-pyran-4-yl)amino)octahydrocyclopenta[c]pyrrol-3a-yl)(3-(trifluoromethyl)-7,8-dihydro-1,6-naphthyridin-6(5H)-yl)methanone] |
| 100 | COC1COCCC1N[C@@H]1C[C@H]2CN(C3=NCCO3)C[C@@]2(C(=O)N2CCc3ncc(C(F)(F)F)cc3C2)C1 (relative stereo) [Example 113, ((3aR,5R,6aR)-2-(4,5-Dihydrooxazol-2-yl)-5-(((3S*,4S*)-3-methoxytetrahydro-2H-pyran-4-yl)amino)octahydrocyclopenta[c]pyrrol-3a-yl)(3-(trifluoromethyl)-7,8-dihydro-1,6-naphthyridin-6(5H)-yl)methanone] |
| 370 | COC1COCCC1N[C@@H]1C[C@H]2CN(C=O)C[C@@]2(C(=O)N2CCc3ncc(C(F)(F)F)cc3C2)C1 (relative stereo) [Example 114, (3aR,5R,6aR)-5-(((3S*,4S*)-3-Methoxytetrahydro-2H-pyran-4-yl)amino)-3a-(3-(trifluoromethyl)-5,6,7,8-tetrahydro-1,6-naphthyridine-6-carbonyl)hexahydrocyclopenta-[c]pyrrole-2(1H)-carbaldehyde] |
| 40 | COC1COCCC1N[C@@H]1C[C@H]2CN(/C(N)=N\C#N)C[C@@]2(C(=O)N2CCc3ncc(C(F)(F)F)cc3C2)C1 (relative stereo) [Example 115, (3aR,5R,6aR,E)-N′-Cyano-5-(((3S*,4S*)-3-methoxytetrahydro-2H-pyran-4-yl)amino)-3a-(3-(trifluoromethyl)-5,6,7,8-tetrahydro-1,6-naphthyridine-6-carbonyl)hexahydrocyclopenta-[c]pyrrole-2(1H)-carboximidamide] |
| 1800 | COC1COCCC1N[C@@H]1C[C@H]2CN(/C(N)=N/O)C[C@@]2(C(=O)N2CCc3ncc(C(F)(F)F)cc3C2)C1 (relative stereo) [Example 116, (3aR,5R,6aR,E)-N′-Hydroxy-5-(((3S*,4S*)-3-methoxytetrahydro-2H-pyran-4-yl)amino)-3a-(3-(trifluoromethyl)-5,6,7,8-tetrahydro-1,6-naphthyridine-6-carbonyl)hexahydro-cyclopenta[c]pyrrole-2(1H)-carboximidamide] |
| 5400 | COC1COCCC1N[C@@H]1C[C@H]2CN(C#N)C[C@@]2(C(=O)N2CCc3ncc(C(F)(F)F)cc3C2)C1 (relative stereo) [Example 117, (3aR,5R,6aR)-5-(((3S*,4S*)-3-Methoxytetrahydro-2H-pyran-4-yl)amino)-3a-(3-(trifluoromethyl)-5,6,7,8-tetrahydro-1,6-naphthyridine-6-carbonyl)hexahydrocyclopenta[c]pyrrole-2(1H)-carbonitrile] |
| 22800 | COC1COCCC1N[C@@H]1C[C@H]2C(=O)NC[C@@]2(C(=O)N2CCc3ncc(C(F)(F)F)cc3C2)C1 (relative stereo) [Example 118, (3aR,5R,6aR)-5-(((3S*,4S*)-3-Methoxytetrahydro-2H-pyran-4-yl)amino)-3a-(3-(trifluoromethyl)-5,6,7,8-tetrahydro-1,6-naphthyridine-6-carbonyl)hexahydro-cyclopenta[c]pyrrol-(2H)-one] |
| 12000 | COC1COCCC1N[C@@H]1C[C@H]2CNC(=O)[C@@]2(C(=O)N2CCc3ncc(C(F)(F)F)cc3C2)C1 (relative stereo) [Example 119, (3aR,5R,6aR)-5-(((3S*,4S*)-3-Methoxytetrahydro-2H-pyran-4-yl)amino)-6a-(3-(trifluoromethyl)-5,6,7,8-tetrahydro-1,6-naphthyridine-6-carbonyl)hexahydrocyclopenta-[c]pyrrol-1(2H)-one] |

Reference: patent publication US9024017B2, “Octahydro-cyclopentapyrrolyl antagonists of CCR2” (Janssen Pharmaceutica NV, priority 2012, dated 2015)
